Literature values in patent publication US20160213673A1, “ENDURANCE FORMULATION AND USE” (priority 2015, published 2016).

Experiments:
[1] = exhausted rats
[2] = target: TRVP-1 (Homo sapiens, UniProt Q8NER1)
[3] = 3 mg of 9 mg of dihydrocapsiate per day for 28 days
[4] = tested on: UCP3 mRNA expression in skeletal muscle; conditions: occurred within minutes of capsinoid ingestion
[5] = not given; remark: listed apart in the source
[6] = following 4 mg/kg caffeine consumption
[7] = during the first 15 minutes of exercise
[8] = tested on: arginase
[9] = following capsiate administration

Sequence of TRVP-1 (Q8NER1 whole entry): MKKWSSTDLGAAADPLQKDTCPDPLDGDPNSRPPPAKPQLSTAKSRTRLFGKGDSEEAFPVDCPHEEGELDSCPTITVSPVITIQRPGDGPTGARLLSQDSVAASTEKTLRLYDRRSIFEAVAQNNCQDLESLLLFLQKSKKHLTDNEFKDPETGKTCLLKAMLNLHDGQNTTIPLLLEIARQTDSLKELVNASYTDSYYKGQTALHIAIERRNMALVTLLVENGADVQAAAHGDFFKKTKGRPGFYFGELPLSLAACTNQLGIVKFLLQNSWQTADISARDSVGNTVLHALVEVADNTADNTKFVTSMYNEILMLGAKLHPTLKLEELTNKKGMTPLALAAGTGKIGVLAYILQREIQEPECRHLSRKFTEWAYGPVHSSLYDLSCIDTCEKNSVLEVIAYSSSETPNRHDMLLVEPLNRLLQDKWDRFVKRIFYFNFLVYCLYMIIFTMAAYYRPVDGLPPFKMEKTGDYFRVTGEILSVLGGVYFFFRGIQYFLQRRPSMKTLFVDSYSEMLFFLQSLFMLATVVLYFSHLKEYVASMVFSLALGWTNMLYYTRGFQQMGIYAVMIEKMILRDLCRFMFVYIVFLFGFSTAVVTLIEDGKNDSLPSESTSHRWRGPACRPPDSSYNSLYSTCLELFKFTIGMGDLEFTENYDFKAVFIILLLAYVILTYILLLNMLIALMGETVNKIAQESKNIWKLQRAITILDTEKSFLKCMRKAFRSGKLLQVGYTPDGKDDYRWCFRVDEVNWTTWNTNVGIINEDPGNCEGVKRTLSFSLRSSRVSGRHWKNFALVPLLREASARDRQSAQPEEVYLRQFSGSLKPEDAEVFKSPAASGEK

N=C(N)NCCC[C@H](N)C(=O)O [arginine]
ammonia toxicity [1]: mitigate ammonia toxicity

NC(=O)NCCC[C@H](N)C(=O)O [citrulline]
ammonia toxicity [1]: mitigate ammonia toxicity

COc1cc(COC(=O)CCCCCCC(C)C)ccc1O [dihydrocapsiate]
rates of TRVP-1 activation, capsiate compared with dihydrocapsiate [2]: similar
post prandial energy expenditure [3]: significant increase
respiratory quotient (RQ) versus placebo group [3]: significantly lower

COc1cc(COC(=O)CCCC/C=C/C(C)C)ccc1O [capsiate]
persistence of UCP3 mRNA expression in skeletal muscle [4]: 2 h
residual glycogen in the gastrocnemius muscle (after 30 min of swimming): higher
serum free fatty acid concentration (after 30 min of swimming): tended to be higher
serum lactic acid concentration (after 30 min of swimming): significantly lower
carbohydrate oxidation [9]: reduced
fat oxidation [9]: significantly higher
oxygen consumption (aerobic) [9]: significantly higher
swimming time versus mice without capsiate (mice): significantly longer
rates of TRVP-1 activation, capsiate compared with dihydrocapsiate [2]: similar
ATP cost of twitch force generation ([5]; mouse, in vivo): reduced
twitch force-generating capacity ([5]; mouse, in vivo): increased
oxidative phosphorylation during rest ([5]; rest): not affected
contribution of oxidative phosphorylation to total energy turnover ([5]; when exercising): increased
glycolysis ([5]; when exercising): reduction

Cn1c(=O)c2c(ncn2C)n(C)c1=O [caffeine]
plasma free fatty acids [6]: greater increase
respiratory quotient (RQ) [6]: significantly lower
decrease of glycogen utilization [7]: ≤ 50%
arginase activity [8]: inhibits arginase activity
